Laboratory results taken from US4275072A, “2,6-Dichlorophenyl-substituted amino-imidazole derivatives and use as hypertensive agents” (priority 1979, dated 1981).

What was measured:
[1] = tested on: Sprague-Dawley male rats; assay: diuretic effect: urine volume in rats after intraperitoneal injection; type: in vivo; conditions: for Mean Cumulative Volume of Urine, 0-1 hours / Mean Cumulative Volume of Urine, 0-2 hours / Mean Cumulative Volume of Urine, 0-3 hours / Mean Cumulative Volume of Urine, 0-4 hours / Mean Cumulative Volume of Urine, 0-5 hours: 2 mg/kg intraperitoneally, 6 rats, 10 ml water by gastric tube; for Mean Cumulative Volume of Urine, 0-1 hours: saline control 1.1; for Mean Cumulative Volume of Urine, 0-2 hours: saline control 7.2; for Mean Cumulative Volume of Urine, 0-3 hours: saline control 11.4; for Mean Cumulative Volume of Urine, 0-4 hours / Mean Cumulative Volume of Urine, 0-5 hours: saline control 13.5; for diuretic activity: in words
Description: The diuretic effect of the intermediates may be studied by injecting the compounds intraperitoneally to adult Sprague-Dawley male rats after an overnight fast. Simultaneously, 10 ml of water is fed to each rat through a gastric tube.

[2] = in words; prior art; cited from earlier work
[3] = tested on: Okamoto-Aoki spontaneous hypertensive rats (SHR); assay: blood pressure in unanesthetized spontaneous hypertensive rats (SHR), peroral; type: in vivo; conditions: 100 mg/kg p.o.
Description: (§1) In a further test unanesthetized Okamoto-Aoki spontaneous hypertensive rats (SHR) are used. The test derivative is administered perorally by way of a tube into the stomach. The blood pressure is measured from the tail using an indirect bloodless method.

[4] = tested on: gastric ulcers; assay: anti-ulcer activity: gastric ulcers induced by anti-inflammatory agents (e.g., indomethacin); type: in vivo; conditions: i.p., ulcers counted after three hours, fasted female rats
[5] = anti-hypertensive activity in mammals, overall observations; conditions: in words; for anti-hypertensive activity: in mammals
Description: The anti-hypertensive properties of the imidazole derivatives of the invention may be shown by using anesthetized Sprague-Dawley rats of normal weight. The test animals are first anesthetized with urethane. After this the femoral artery is connected by way of a polyethylene tube with a blood pressure transducer. The test substance is injected into the femoral vein. The blood pressure and the pulse frequency are registered with a recorder.
as §1

[6] = preliminary tests of further pharmacological activities; conditions: in words
[7] = tested on: anesthetized Sprague-Dawley rats; assay: blood pressure and pulse frequency in anesthetized Sprague-Dawley rats, i.v.; type: in vivo
Description: The test animals are first anesthetized with urethane. […] The test substance is injected into the femoral vein.

[8] = tested on: rats; assay: toxicity (LD50) in rats; type: in vivo; conditions: in words

O=C(O)Cc1c[nH]c(Nc2c(Cl)cccc2Cl)n1 [Compound IIa, 4-[2-(2',6'-dichloroanilino)]-imidazoleacetic acid]
Mean Cumulative Volume of Urine, 0-1 hours [1]: 1.3 mL
Mean Cumulative Volume of Urine, 0-2 hours [1]: 8.1 mL
Mean Cumulative Volume of Urine, 0-3 hours [1]: 12.9 mL
Mean Cumulative Volume of Urine, 0-4 hours [1]: 14.3 mL
Mean Cumulative Volume of Urine, 0-5 hours [1]: 14.9 mL
diuretic activity [1]: significant diuretic activity

CCOC(=O)Cc1c[nH]c(Nc2c(Cl)cccc2Cl)n1 [Compound IIb, 4-[2-(2',6'-dichloroanilino)]-imidazoleacetic acid ethyl ester]
Mean Cumulative Volume of Urine, 0-1 hours [1]: 3.4 mL
Mean Cumulative Volume of Urine, 0-2 hours [1]: 9.5 mL
Mean Cumulative Volume of Urine, 0-3 hours [1]: 13.4 mL
Mean Cumulative Volume of Urine, 0-4 hours [1]: 14.4 mL
Mean Cumulative Volume of Urine, 0-5 hours [1]: 14.4 mL

Nc1nc(CC(=O)O)cn1-c1c(Cl)cccc1Cl [Compound Ia, 4-[1-(2',6'-dichlorophenyl)-2-amino]-imidazoleacetic acid]
Mean Cumulative Volume of Urine, 0-1 hours [1]: 2.6 mL
Mean Cumulative Volume of Urine, 0-2 hours [1]: 10.2 mL
Mean Cumulative Volume of Urine, 0-3 hours [1]: 13.9 mL
Mean Cumulative Volume of Urine, 0-4 hours [1]: 14.7 mL
Mean Cumulative Volume of Urine, 0-5 hours [1]: 16.4 mL
diuretic activity [1]: significant diuretic activity

CCOC(=O)Cc1cn(-c2c(Cl)cccc2Cl)c(N)n1 [Compound Ib, 4-[1-(2',6'-dichlorophenyl)-2-amino]-imidazoleacetic acid ethyl ester]
Mean Cumulative Volume of Urine, 0-1 hours [1]: 2.3 mL
Mean Cumulative Volume of Urine, 0-2 hours [1]: 10.9 mL
Mean Cumulative Volume of Urine, 0-3 hours [1]: 12.3 mL
Mean Cumulative Volume of Urine, 0-4 hours [1]: 14.5 mL
Mean Cumulative Volume of Urine, 0-5 hours [1]: 15.7 mL

Clc1cccc(Cl)c1N=C1NCCN1 [clonidine, 2-(2,6-dichloroanilino)-2-imidazoline]
temporary rise of the blood pressure at the beginning of administration [2]: temporary rise in blood pressure at the beginning of administration

Cc1cn(-c2c(Cl)cccc2Cl)c(N)n1 [compound I, 1-(2',6'-dichlorophenyl)-2-amino-4-methyl-imidazole]
Average reduction of blood pressure [3]: 35%
minimal effective dose ([4]; Rattus norvegicus, ip, 3 h, doses as small as, read-out: smallest dose effective in reducing the number of ulcers): 1 mg/kg
dose that prevents the formation of gastric ulcers [4]: ~20 mg/kg
anti-hypertensive activity [5]: excellent anti-hypertensive activity
reduction of the blood pressure, character and duration [5]: smooth and of relatively long duration
temporary rise of the blood pressure at the beginning of the administration [5]: No temporary rise of the blood pressure is observed
analgesic activity [6]: analgesic
anti-arrhythmic activity [6]: anti-arrhythmic activity
anti-convulsant activity [6]: anti-convulsant
anti-depressant activity [6]: anti-depressant
anti-inflammatory activity [6]: anti-inflammatory
anti-ulcer activity [6]: anti-ulcer
Average reduction of blood pressure ([7]; 10 mg/kg i.v.): 25%
Average reduction of pulse frequency ([7]; 10 mg/kg i.v.): 20%
Average reduction of blood pressure ([7]; 3,3 mg/kg i.v.): 20%

Cc1c[nH]c(Nc2c(Cl)cccc2Cl)n1 [compound II, 2-(2',6'-dichloroanilino)-4-methyl-imidazole]
toxicity [8]: low toxicity
anti-hypertensive activity [5]: excellent anti-hypertensive activity
reduction of the blood pressure, character and duration [5]: smooth and of relatively long duration
temporary rise of the blood pressure at the beginning of the administration [5]: No temporary rise of the blood pressure is observed
analgesic activity [6]: analgesic
anti-arrhythmic activity [6]: anti-arrhythmic activity
anti-convulsant activity [6]: anti-convulsant
anti-depressant activity [6]: anti-depressant
anti-inflammatory activity [6]: anti-inflammatory
anti-ulcer activity [6]: anti-ulcer
Average reduction of blood pressure ([7]; 10 mg/kg i.v.): 25%
